Results: PubChem BioAssay AID248 (DTP/NCI, 2004)
Where “and” joins values, the source holds several entries; their conditions need not be identical. Equal entries are not always repeated. Toxic doses and inconclusive results are not listed. No stated cut-off is given here; in the data, active means T/C of 150% or more; inactive means T/C below 125%.

System: L1210 leukemia ip in BDF1 mice, survival T/C
Test: NCI In Vivo Anticancer Drug Screen. Data for tumor model L1210 Leukemia (intraperitoneal) in B6D2F1 (BDF1) mice
Conditions: endpoint: mean survival time, higher = longer survival
Summary of the method: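 Tumor cells were implanted, animals were treated, and survival was followed. The result divides the treated measurement by the vehicle-control measurement.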

[1] = dose: 100.0 mg/kg/injection, schedule: Q01DX001 (ip), vehicle: saline
[2] = dose: 200.0 mg/kg/injection, schedule: Q01DX001 (ip), vehicle: saline
[3] = dose: 50.0 mg/kg/injection, schedule: Q01DX009 (ip), vehicle: gum acacia
[4] = dose: 100.0 mg/kg/injection, schedule: Q01DX009 (ip), vehicle: gum acacia
[5] = dose: 100.0 mg/kg/injection, schedule: Q04DX003 (ip), vehicle: saline with Tween-80
[6] = dose: 200.0 mg/kg/injection, schedule: Q04DX003 (ip), vehicle: saline with Tween-80
[7] = dose: 400.0 mg/kg/injection, schedule: Q04DX003 (ip), vehicle: saline with Tween-80
[8] = dose: 50.0 mg/kg/injection, schedule: Q01DX001 (ip), vehicle: saline
[9] = dose: 400.0 mg/kg/injection, schedule: Q01DX001 (ip), vehicle: saline
[10] = dose: 100.0 mg/kg/injection, schedule: Q01DX009 (ip), vehicle: saline
[11] = dose: 100.0 mg/kg/injection, schedule: Q04DX003 (ip), vehicle: saline
[12] = dose: 200.0 mg/kg/injection, schedule: Q04DX003 (ip), vehicle: saline
[13] = dose: 400.0 mg/kg/injection, schedule: Q04DX003 (ip), vehicle: saline

Measured: T/C

O=C1c2ccccc2C(=O)N1CCC[P+](c1ccccc1)(c1ccccc1)c1ccccc1
inactive: dose: 6.25 mg/kg/injection, schedule: Q01DX009 (ip), vehicle: saline with Tween-80 106 % of control | dose: 12.5 mg/kg/injection, schedule: Q01DX009 (ip), vehicle: saline with Tween-80 111 % of control | dose: 25.0 mg/kg/injection, schedule: Q01DX009 (ip), vehicle: saline with Tween-80 116 % of control and 120 % of control

Cc1cc(NS(=O)(=O)c2ccc(N=Nc3c(N)[nH]c(=S)[nH]c3=O)cc2)nc(C)n1
inactive: [1] 96 % of control | [2] 100 % of control

NCCc1cc(O)c(O)c(S(=O)(=O)c2ccc(N)cc2)c1
inactive: dose: 75.0 mg/kg/injection, schedule: Q01DX009 (ip), vehicle: saline 107 % of control | dose: 150.0 mg/kg/injection, schedule: Q01DX009 (ip), vehicle: saline 105 % of control

COC(=O)c1ccc(=O)oc1
inactive: [3] 105 % of control | [4] 100 % of control | dose: 100.0 mg/kg/injection, schedule: Q04DX003 (ip), vehicle: gum acacia 98 % of control | dose: 200.0 mg/kg/injection, schedule: Q01DX009 (ip), vehicle: gum acacia 88 % of control | dose: 200.0 mg/kg/injection, schedule: Q04DX003 (ip), vehicle: gum acacia 100 % of control

CC(C)CC(NC(=O)OC(C)(C)C)C(=O)NC(Cc1c[nH]c2ccccc12)C(=O)NN (centres undefined)
inactive: dose: 100.0 mg/kg/injection, schedule: Q01DX001 (ip), vehicle: carboxymethylcellulose (CMC) 88 % of control | dose: 400.0 mg/kg/injection, schedule: Q01DX001 (ip), vehicle: carboxymethylcellulose (CMC) 94 % of control

O=C1c2ccccc2-c2cc(Br)c(NC(Cl)Cl)cc21
inactive: [5] 94 % of control | [6] 93 % of control | [7] 94 % of control

N#Cc1cc(Cl)c2c(c1Cl)Nc1c(Cl)ccc(Cl)c1S2
inactive: [8] 96 % of control | [1] 96 % of control | [2] 96 % of control | [9] 102 % of control

C#CC(C)OCC(O)CCl (centres undefined)
inactive: dose: 25.0 mg/kg/injection, schedule: Q01DX009 (ip), vehicle: saline 97 % of control | dose: 50.0 mg/kg/injection, schedule: Q01DX009 (ip), vehicle: saline 105 % of control | [10] 103 % of control and 89 % of control | dose: 100.0 mg/kg/injection, schedule: Q04DX003 (ip), vehicle: saline sonified 97 % of control | dose: 200.0 mg/kg/injection, schedule: Q04DX003 (ip), vehicle: saline sonified 87 % of control | dose: 400.0 mg/kg/injection, schedule: Q04DX003 (ip), vehicle: saline sonified 103 % of control

Clc1ccc(CSC2=NCCN2)cc1
inactive: dose: 12.5 mg/kg/injection, schedule: Q04DX003 (ip), vehicle: saline 94 % of control | dose: 25.0 mg/kg/injection, schedule: Q04DX003 (ip), vehicle: saline 93 % of control | dose: 50.0 mg/kg/injection, schedule: Q04DX003 (ip), vehicle: saline 98 % of control

CCCCS(=O)(=O)c1nc2ccc([N+](=O)[O-])cc2s1
inactive: dose: 100.0 mg/kg/injection, schedule: Q04DX002 (ip), vehicle: saline with Tween-80 92 % of control | dose: 200.0 mg/kg/injection, schedule: Q04DX002 (ip), vehicle: saline with Tween-80 95 % of control

O=C(Nc1cccc(C(F)(F)F)c1)Oc1ccc(F)cc1Cl
inactive: dose: 25.0 mg/kg/injection, schedule: Q01DX009 (ip), vehicle: gum acacia 100 % of control | [3] 98 % of control | [4] 88 % of control

O=C1CCC(N2C(=O)C3C4C=CC(C4)C3C2=O)C(=O)N1 (centres undefined)
inactive: [11] 101 % of control | [12] 101 % of control | [13] 97 % of control

N#[N+]c1c(O)cc(S(=O)(=O)O)c2ccccc12
inactive: [10] 92 % of control | [11] 94 % of control | [12] 101 % of control

NCc1cccc(OCCOc2ccccc2)c1
inactive: dose: 100.0 mg/kg/injection, schedule: Q01DX001 (ip), vehicle: saline with Tween-80 102 % of control | dose: 200.0 mg/kg/injection, schedule: Q01DX001 (ip), vehicle: saline with Tween-80 97 % of control | dose: 400.0 mg/kg/injection, schedule: Q01DX001 (ip), vehicle: saline with Tween-80 103 % of control

CCSC(SCC)C(NC(C)=O)C1OC(C)(C)OC1C(O)CO (centres undefined)
inactive: [8] 97 % of control | [1] 103 % of control | [2] 103 % of control | [9] 103 % of control

COC(=O)C(CSCSC)NC(=O)/C=C/c1ccccc1Cl (centres undefined)
inactive: dose: 50.0 mg/kg/injection, schedule: Q01DX009 (ip), vehicle: saline with Tween-80 97 % of control and 86 % of control | dose: 100.0 mg/kg/injection, schedule: Q01DX009 (ip), vehicle: saline with Tween-80 92 % of control | [5] 94 % of control | dose: 200.0 mg/kg/injection, schedule: Q01DX009 (ip), vehicle: saline with Tween-80 93 % of control and 92 % of control | [6] 91 % of control | [7] 87 % of control

COc1cc(I)c(CC(=O)O)cc1OC
inactive: [1] 97 % of control | [10] 93 % of control | [11] 96 % of control | [2] 97 % of control | dose: 200.0 mg/kg/injection, schedule: Q01DX009 (ip), vehicle: saline 91 % of control | [12] 96 % of control | [9] 96 % of control | dose: 400.0 mg/kg/injection, schedule: Q01DX009 (ip), vehicle: saline 96 % of control | [13] 90 % of control

O=C1C=C(N2CC2)c2ccccc2C1=O
inactive: dose: 2.5 mg/kg/injection, schedule: Q01DX009 (ip), vehicle: Klucel (hydroxypropylcellulose) (HPC) 101 % of control | dose: 2.5 mg/kg/injection, schedule: Q04DX003 (ip), vehicle: Klucel (hydroxypropylcellulose) (HPC) 104 % of control | dose: 5.0 mg/kg/injection, schedule: Q01DX009 (ip), vehicle: Klucel (hydroxypropylcellulose) (HPC) 96 % of control | dose: 5.0 mg/kg/injection, schedule: Q04DX003 (ip), vehicle: Klucel (hydroxypropylcellulose) (HPC) 104 % of control | dose: 10.0 mg/kg/injection, schedule: Q01DX009 (ip), vehicle: Klucel (hydroxypropylcellulose) (HPC) 100 % of control | dose: 10.0 mg/kg/injection, schedule: Q04DX003 (ip), vehicle: Klucel (hydroxypropylcellulose) (HPC) 102 % of control | dose: 20.0 mg/kg/injection, schedule: Q01DX001 (ip), vehicle: Klucel (hydroxypropylcellulose) (HPC) 105 % of control | dose: 20.0 mg/kg/injection, schedule: Q01DX009 (ip), vehicle: Klucel (hydroxypropylcellulose) (HPC) 104 % of control | dose: 20.0 mg/kg/injection, schedule: Q04DX003 (ip), vehicle: Klucel (hydroxypropylcellulose) (HPC) 109 % of control

CCCCCCCCCCCCCCCCCCCC(=O)COS(C)(=O)=O
inactive: dose: 100.0 mg/kg/injection, schedule: Q04DX002 (ip), vehicle: Klucel (hydroxypropylcellulose) (HPC) 88 % of control | dose: 200.0 mg/kg/injection, schedule: Q04DX002 (ip), vehicle: Klucel (hydroxypropylcellulose) (HPC) 88 % of control | dose: 400.0 mg/kg/injection, schedule: Q04DX002 (ip), vehicle: Klucel (hydroxypropylcellulose) (HPC) 88 % of control

NC(CCl)=NCC1C2CC3CC(C2)CC1C3 (centres undefined)
inactive: dose: 10.0 mg/kg/injection, schedule: Q01DX009 (ip), vehicle: saline 101 % of control | dose: 10.0 mg/kg/injection, schedule: Q04DX002 (ip), vehicle: saline 121 % of control | dose: 20.0 mg/kg/injection, schedule: Q01DX009 (ip), vehicle: saline 116 % of control | dose: 20.0 mg/kg/injection, schedule: Q04DX002 (ip), vehicle: saline 110 % of control | dose: 40.0 mg/kg/injection, schedule: Q04DX002 (ip), vehicle: saline 110 % of control

CCSC1C(O)C(C(O)CO)OC1n1cnc2c(N)ncnc21 (centres undefined)
inactive: dose: 100.0 mg/kg/injection, schedule: Q01DX005 (ip), vehicle: saline 98 % of control and 105 % of control and 102 % of control | dose: 200.0 mg/kg/injection, schedule: Q01DX005 (ip), vehicle: saline 98 % of control and 100 % of control and 96 % of control | dose: 400.0 mg/kg/injection, schedule: Q01DX005 (ip), vehicle: saline 104 % of control

COC(=O)CC(c1cccc2ccccc12)c1cccc2ccc3ccccc3c12 (centres undefined)
inactive: dose: 100.0 mg/kg/injection, schedule: Q04DX003 (ip), vehicle: DMSO 92 % of control | dose: 200.0 mg/kg/injection, schedule: Q04DX003 (ip), vehicle: DMSO 94 % of control | dose: 400.0 mg/kg/injection, schedule: Q04DX003 (ip), vehicle: DMSO 89 % of control

CCCCOCC(O)CNCCN (centres undefined)
inactive: dose: 100.0 mg/kg/injection, schedule: Q04DX002 (ip), vehicle: saline 108 % of control | dose: 200.0 mg/kg/injection, schedule: Q04DX002 (ip), vehicle: saline 90 % of control | dose: 400.0 mg/kg/injection, schedule: Q04DX002 (ip), vehicle: saline 104 % of control
